Laboratory results: the NIST ThermoML archive (doi:10.1016/j.fluid.2012.06.020)
Numbers after ± are expanded uncertainties.

Assays:
[1] = Liquid; for mass density: 293.15 K, 101.33 kPa, Pycnometric method; for Normal boiling temperature: Fischer Boiling Apparatus
[2] = refractive index (Na D-line) (dimensionless); conditions: 293.15 K; 101.33 kPa; Liquid; Standard Abbe refractometry

Row | SMILES | mass density [1] [kg/m3] | Normal boiling temperature [1] [°C] | refractive index [2]
1 | CC(=O)O [acetic acid] | 1044.3 ± 0.47 | 117.80 ± 1 | 1.371 ± 0.0004
2 | O=CO [formic acid] | 1218.5 ± 1.5 | 101.1 ± 1 | 1.3721 ± 0.0005
3 | CCC(=O)O [propanoic acid] | 988.1 ± 0.43 | 141.1 ± 1 | 1.3808 ± 0.0004
4 | O [water] | 999.9 ± 0.26 | 100.1 ± 1 | 1.3324 ± 0.0003

More lines, now with the values ahead:

Row | mass density [1] [kg/m3] | Normal boiling temperature [1] [°C] | refractive index [2] | SMILES
5 | 829.2 ± 0.74 | 245.1 ± 1 | 1.4402 ± 0.0005 | CCCCCCCCCCCO [1-undecanol]
6 | 932.5 ± 0.4 | 186.00 ± 1 | 1.4088 ± 0.0004 | CCCCC(=O)O [pentanoic acid]
